According to US20240206469A1, “PHOSPHORUS USE EFFICIENCY ENHANCERS AS PLANT GROWTH PROMOTORS” (EUROCHEM ANTWERPEN, priority 2021, published 2024):

Tests used:
[1] = tested on: SPX1 phosphate starvation biomarker; test: Chemical activity assessment with Arabidopsis pSPX1::GUS reporter line (GUS stained area); format: in vivo, Arabidopsis thaliana; conditions: low phosphate, 50 μM, 7 days after germination; compare with low phosphate controls of same plate (Table 5 c3)
Description: (§1) All Arabidopsis plant experiments were performed using the Arabidopsis thaliana Columbia-0 background. The Arabidopsis pSPX1::GUS line is described in the Plant Journal 2008, 54: 965-975. For rice, the cultivar Nipponbare was used. For maize, the cultivars DKC 2931 and B104 were used for regular pot experiments and sand-based pot experiments, respectively. For soybean, the cultivar Primus was used. […] The medium was solidified due to the addition of 0.6% Gelrite, unless stated otherwise. In case of vertical plates (root length and root hair measurements), the medium was supplied with 0.5% of sucrose and 1 μM (low phosphate, 1 μM KH2PO4, 9.9 mM KCl), 10 μM (low phosphate 10 μM KH2PO4, 9.9 mM KCl) or 1.25 mM KH2PO4 (high phosphate). Arabidopsis seeds were stratified for 2 days at 4° C. before germination. Seedlings were germinated in climate-controlled growth chambers at 22° C. under continuous light (100 μmol m^−2 s^−1). Husked rice seeds were germinated on wetted Whatman paper for 2 days at 37° C. and then transferred to Sterivent boxes or square Petri dishes with solid medium. Maize and soybean seeds were wetted 24 hours at room temperature prior to sowing in pots.
For the chemical activity assessment 3 to 8 seeds per well of Arabidopsis pSPX1::GUS line were sown in 96-well plates containing 150 μl of low phosphate modMS liquid medium containing 1% of sucrose. Compounds were added in 50 μM concentration, starting from a 5 mM stock of compounds solved in DMSO. Different chemical substances were separately added to different wells. Per plate, 16 control wells were used, 8 containing only the low phosphate medium and 1% DMSO, and 8 containing high phosphate medium and 1% DMSO. 7 days after germination, plates were scanned using a flatbed scanner (EPSON Expression 11000XL) and analyzed for leaf size. After scanning, the growth medium was replaced by GUS staining solution (see Plant Mol. Biol. Rep. 1994, 12: 37-42 for details) and incubated for 1.5 hours at 37° C. The plates were scanned a second time and analyzed for GUS signal area. Measurements of both leaf area and GUS signal area were conducted by filtering out and measure the green and blue signal, respectively using ImageJ software. If the green leaf area was 50% or less than the control, samples were omitted. Additionally, all results were visually screened for leaf size and GUS signal.

[2] = tested on: Arabidopsis root hairs; test: Root hair number and length quantification; format: in vivo, Arabidopsis thaliana; conditions: Arabidopsis thaliana, read-out: Total root hair length per root (in % compared to the control)
Description: as §1
Roots were imaged using a stereomicroscope or a VHX-6000. Number and length of the root hairs parallel to the medium surface was determined at 4 to 6 mm above the root meristem. Root hair length was measured using the ImageJ software.

[3] = tested on: Maize; test: Maize growth experiment in pots with mixture of unfertilized potting soil and sand (leaf 5); format: in vivo
Description: For a subset of compounds, we performed a more extensive analysis on their root hair inducing effect in a dose-response experiment (Table 3). This confirms that the more simple structures 8.14 and 8.14.6 still retain the activity of compound 8. […] To validate this, we performed a maize growth experiment using compound 8 and the, based on the increase of total root hair length, stronger variant 8.14.6. The experiment was conducted in pots with a mixture of unfertilized potting soil and sand, and leaf 5 was measured after 29 days (Table 4).

| Compound | GUS (SPX1) stained area normalized to the number of seeds [1] [pixels] | activity at 0.6 µM [2] [%] | activity at 1.25 µM [2] [%] | also measured |
| --- | --- | --- | --- | --- |
| O=C(CN1CC(C(=O)N2CCCCC2)Oc2ccccc21)N1CC=C(c2ccccc2)CC1 (centres unmarked) [Compound 8.14.1] | 22 | – | – | – |
| CN(Cc1ccc(Br)s1)C(=O)CN1C(=O)CCOc2ccccc21 [Compound 8.14.2] | 39 | – | – | – |
| COc1ccc([N+](=O)[O-])cc1NCC(=O)N1CCCC1c1cccs1 (centres unmarked) [Compound 8.14.5] | 93 | – | – | – |
| COc1ccc(C)cc1NCC(N)=O [Compound 8.14.6] | 2 | 231 | 592 | Growth-promoting effect on maize versus compound 8 ([3]; leaf 5 after 29 days): even a stronger growth-promoting effect; Leaf 5 ([3]; maize, pots with unfertilized potting soil and sand, after 29 days, control 38.1): 41.8 cm |
| Cc1ccc2c(c1)OC(C)CN2CC(N)=O (centres unmarked) [Compound 8.14] | 2 | 231 | 343 | activity at 2.5 µM ([2]; 2.5 μM): 493%; activity at 5 µM ([2]; 5 μM): 803% |
| CC(C)(C)c1csc(NC(=O)CN2C(=O)COc3ccccc32)n1 [Compound 8.14.4] | 46 | – | – | – |
